Among the data in patent US6638973B2, “Taxane formulations” (FSU Research Foundation, Inc., priority 2000, dated 2003) are IC50 values, retold here.

Each structure is given as a SMILES string. Bounds are passed on as bounds.

The first test concerns HCT116 cells. In words: In vitro cytotoxicity measured by the cell colony formation assay. The format is cell-based. The following applies: HCT116 cells, 72 h drug incubation, colonies counted after 7 days; ID50 = drug concentration producing 50% inhibition of colony formation; read-out: IN VITRO ID 50 (nm) HCT116. The protocol:
(§1) Four hundred cells (HCT116) were plated in 60 mm Petri dishes containing 2.7 mL of medium (modified McCoy's 5a medium containing 10% fetal bovine serum and 100 units/mL penicillin and 100 µg/mL streptomycin). The cells were incubated in a CO2 incubator at 37° C. for 5 h for attachment to the bottom of Petri dishes. The compounds identified in Example 2 were made up fresh in medium at ten times the final concentration, and then 0.3 mL of this stock solution was added to the 2.7 mL of medium in the dish. The cells were then incubated with drugs for 72 h at 37° C. At the end of incubation the drug-containing media were decanted, the dishes were rinsed with 4 mL of Hank's Balance Salt Solution (HBSS), 5 mL of fresh medium was added, and the dishes were returned to the incubator for colony formation. The cell colonies were counted using a colony counter after incubation for 7 days.
as §1, with “Example 7” for “Example 2”
as §1, with “Example 22” for “Example 2”
as §1, with “Example 27” for “Example 2”
Four hundred cells (HCT116) were plated in 60 mm Petri dishes containing 2.7 mL of medium (modified McCoy's 5a medium containing 10% fetal bovine serum and 100 units/mL penicillin and 100 µg/mL streptomycin). The cells were incubated in a CO2 incubator at 37° C. for 5 h for attachment to the bottom of Petri dishes. […]
For the compound `CCCNC(=O)O[C@H]1C[C@H]2OC[C@@]2(OC(C)=O)C2[C@H](OC(=O)c3ccccc3)[C@]3(O)C[C@H](OC(=O)[C@H](O)[C@@H](NC(=O)OC(C)(C)C)c4ccco4)C(C)=C([C@@H](O)C(=O)[C@@]21C)C3(C)C` (stereo partly drawn) [Compound 5665], the IC50 was over 50 nM.

The same test, now with this note: HCT116 cells, 72 h incubation with drug, colonies counted after 7 days; ID50 = drug concentration producing 50% inhibition of colony formation; read-out: IN VITRO ID 50 (nm) HCT116.
Consider `CCOC(=O)O[C@H]1C(=O)[C@@]2(C)C([C@H](OC(=O)c3ccccc3)[C@]3(O)C[C@H](OC(=O)[C@H](O)[C@@H](NC(=O)OC(C)(C)C)c4ccncc4)C(C)=C1C3(C)C)[C@]1(OC(C)=O)CO[C@@H]1C[C@@H]2O` (stereo partly drawn) [Compound 1811], for which the IC50 was under 1 nM.

On to `COC(=O)O[C@H]1C(=O)[C@@]2(C)C([C@H](OC(=O)c3ccccc3)[C@]3(O)C[C@H](OC(=O)[C@H](O)[C@@H](NC(=O)OC(C)(C)C)c4ccsc4)C(C)=C1C3(C)C)[C@]1(OC(C)=O)CO[C@@H]1C[C@@H]2O` (stereo partly drawn) [Compound 2050], for which the IC50 was under 1 nM. Take `CCOC(=O)O[C@H]1C(=O)[C@@]2(C)C([C@H](OC(=O)c3ccccc3)[C@]3(O)C[C@H](OC(=O)[C@H](O)[C@@H](NC(=O)c4ccccc4)c4cccs4)C(C)=C1C3(C)C)[C@]1(OC(C)=O)CO[C@@H]1C[C@@H]2O` (stereo partly drawn) [Compound 2972]: the IC50 was under 10 nM. For `CCOC(=O)O[C@H]1C(=O)[C@@]2(C)C([C@H](OC(=O)c3ccccc3)[C@]3(O)C[C@H](OC(=O)[C@H](O)[C@@H](NC(=O)OCC(C)C)c4ccco4)C(C)=C1C3(C)C)[C@]1(OC(C)=O)CO[C@@H]1C[C@@H]2O` (stereo partly drawn) [Compound 3181], the IC50 is under 1 nM.

Take `COC(=O)O[C@H]1C[C@H]2OC[C@@]2(OC(C)=O)C2[C@H](OC(=O)c3ccccc3)[C@]3(O)C[C@H](OC(=O)[C@H](O)[C@@H](NC(=O)OCC(C)C)c4cccs4)C(C)=C([C@@H](O)C(=O)[C@@]21C)C3(C)C` (stereo partly drawn) [Compound 4355]: the IC50 was under 1 nM.

Staying with this test, now noted: HCT116 cells, colony formation, 72 h incubation with drug, colonies counted after 7 days; ID50 = drug concentration producing 50% inhibition of colony formation; read-out: IN VITRO ID 50 (nm) HCT116.
As to `CCNC(=O)O[C@H]1C(=O)[C@@]2(C)C([C@H](OC(=O)c3ccccc3)[C@]3(O)C[C@H](OC(=O)[C@H](O)[C@@H](NC(=O)OC(C)(C)C)c4ccoc4)C(C)=C1C3(C)C)[C@]1(OC(C)=O)CO[C@@H]1C[C@@H]2O` (stereo partly drawn) [Compound 2717], the IC50 is under 1 nM. Turning to `C/C=C/C(=O)N[C@@H](c1ccco1)[C@@H](O)C(=O)O[C@H]1C[C@@]2(O)[C@@H](OC(=O)c3ccccc3)C3[C@](C)(C(=O)[C@H](OC(=O)Nc4ccccc4)C(=C1C)C2(C)C)[C@@H](O)C[C@H]1OC[C@@]31OC(C)=O` (stereo partly drawn) [Compound 6024], the IC50 was under 1 nM.

Staying with this test, now noted: HCT116 colony formation; 72 h drug incubation, colonies counted after 7 days; Example 5, C-7 ester/C-10 hydroxy taxanes; read-out: IN VITRO ID 50 (nm) HCT116.
As for `CC(=O)O[C@@]12CO[C@@H]1C[C@H](OC(=O)CC(C)C)[C@@]1(C)C(=O)[C@H](O)C3=C(C)[C@@H](OC(=O)[C@H](O)[C@@H](NC(=O)OC=C(C)C)c4ccco4)C[C@@](O)([C@@H](OC(=O)c4ccccc4)C12)C3(C)C` (stereo partly drawn) [Compound 6131], the IC50 is under 1 nM. Same read-out and setting: the result for `CCCC(=O)O[C@H]1C[C@H]2OC[C@@]2(OC(C)=O)C2[C@H](OC(=O)c3ccccc3)[C@]3(O)C[C@H](OC(=O)[C@H](O)[C@@H](NC(=O)OCC(C)C)c4ccco4)C(C)=C([C@@H](O)C(=O)[C@@]21C)C3(C)C` (stereo partly drawn) [Compound 4616] reads under 1 nM.

Staying with this test, now noted: HCT116 colony formation; 72 h drug incubation, colonies counted after 7 days; Example 10, C-10 ester/C-7 hydroxy taxanes; read-out: IN VITRO ID 50 (nm) HCT116.
On to `CC(=O)O[C@@]12CO[C@@H]1C[C@H](O)[C@@]1(C)C(=O)[C@H](OC(=O)C3CC3)C3=C(C)[C@@H](OC(=O)[C@H](O)[C@@H](NC(=O)OCC(C)C)c4ccoc4)C[C@@](O)([C@@H](OC(=O)c4ccccc4)C12)C3(C)C` (stereo partly drawn) [Compound 4665], for which the IC50 was under 10 nM. On the same count and under the same terms, under `C/C=C/C(=O)N[C@@H](c1ccco1)[C@@H](O)C(=O)O[C@H]1C[C@@]2(O)[C@@H](OC(=O)c3ccccc3)C3[C@](C)(C(=O)[C@H](OC(=O)CCC)C(=C1C)C2(C)C)[C@@H](O)C[C@H]1OC[C@@]31OC(C)=O` (stereo partly drawn) [Compound 3994] stands under 1 nM. On to `C/C=C/C(=O)N[C@@H](c1cccs1)[C@@H](O)C(=O)O[C@H]1C[C@@]2(O)[C@@H](OC(=O)c3ccccc3)C3[C@](C)(C(=O)[C@H](OC(=O)CCC)C(=C1C)C2(C)C)[C@@H](O)C[C@H]1OC[C@@]31OC(C)=O` (stereo partly drawn) [Compound 3595], for which the IC50 is under 1 nM.

Take `CC(=O)O[C@@]12CO[C@@H]1C[C@H](O)[C@@]1(C)C(=O)[C@H](OC(=O)C=C(C)C)C3=C(C)[C@@H](OC(=O)[C@H](O)[C@@H](NC(=O)OC(C)(C)C)c4ccccn4)C[C@@](O)([C@@H](OC(=O)c4ccccc4)C12)C3(C)C` (stereo partly drawn) [Compound 2464]: the IC50 was under 1 nM. As to `CC(=O)OC12COC1CC(O)C1(C)C(=O)C(OC(=O)c3ccco3)C3=C(C)C(OC(=O)C(O)C(NC(=O)OC(C)(C)C)c4ccncc4)CC(O)(C(OC(=O)c4ccccc4)C21)C3(C)C` (stereo not drawn) [Compound 2132], the IC50 is under 1 nM. As for `CC(=O)OC12COC1CC(O)C1(C)C(=O)C(OC(=O)C(C)C)C3=C(C)C(OC(=O)C(O)C(C=C(C)C)NC(=O)OC(C)(C)C)CC(O)(C(OC(=O)c4ccccc4)C21)C3(C)C` (stereo not drawn) [Compound 2226], the IC50 was under 1 nM.

Turning to `CCCC(=O)O[C@H]1C(=O)[C@@]2(C)C([C@H](OC(=O)c3ccccc3)[C@]3(O)C[C@H](OC(=O)[C@H](O)[C@@H](NC(=O)OCC(C)C)c4ccco4)C(C)=C1C3(C)C)[C@]1(OC(C)=O)CO[C@@H]1C[C@@H]2O` (stereo partly drawn) [Compound 3957], the IC50 was under 10 nM. The same measure, in the same setting: under `CCCC(=O)O[C@H]1C(=O)[C@@]2(C)C([C@H](OC(=O)c3ccccc3)[C@]3(O)C[C@H](OC(=O)[C@H](O)[C@@H](NC(=O)OCC(C)C)c4ccoc4)C(C)=C1C3(C)C)[C@]1(OC(C)=O)CO[C@@H]1C[C@@H]2O` (stereo partly drawn) [Compound 4704] stands under 10 nM; under `CC(=O)OC12COC1CC(O)C1(C)C(=O)C(OC(=O)c3cccs3)C3=C(C)C(OC(=O)C(O)C(NC(=O)OC(C)(C)C)C4CCC4)CC(O)(C(OC(=O)c4ccccc4)C21)C3(C)C` (stereo not drawn) [Compound 1970], under 10 nM; under `C/C=C/C(=O)O[C@H]1C(=O)[C@@]2(C)C([C@H](OC(=O)c3ccccc3)[C@]3(O)C[C@H](OC(=O)[C@H](O)[C@@H](NC(=O)OC(C)(C)C)C4CCC4)C(C)=C1C3(C)C)[C@]1(OC(C)=O)CO[C@@H]1C[C@@H]2O` (stereo partly drawn) [Compound 2424], under 10 nM.

As for `C/C=C/C(=O)O[C@H]1C(=O)[C@@]2(C)C([C@H](OC(=O)c3ccccc3)[C@]3(O)C[C@H](OC(=O)[C@H](O)[C@@H](NC(=O)OC(C)(C)C)c4ccncc4)C(C)=C1C3(C)C)[C@]1(OC(C)=O)CO[C@@H]1C[C@@H]2O` (stereo partly drawn) [Compound 2366], the IC50 was under 1 nM. For `CCOC(=O)N[C@@H](c1cccs1)[C@@H](O)C(=O)O[C@H]1C[C@@]2(O)[C@@H](OC(=O)c3ccccc3)C3[C@](C)(C(=O)[C@H](OC(=O)CC)C(=C1C)C2(C)C)[C@@H](O)C[C@H]1OC[C@@]31OC(C)=O` (stereo partly drawn) [Compound 3370], the IC50 is under 1 nM. The same measure, in the same setting: the result for `CCCC(=O)O[C@H]1C(=O)[C@@]2(C)C([C@H](OC(=O)c3ccccc3)[C@]3(O)C[C@H](OC(=O)[C@H](O)[C@H](C=C(C)C)NC(=O)OC(C)(C)C)C(C)=C1C3(C)C)[C@]1(OC(C)=O)CO[C@@H]1C[C@@H]2O` (stereo partly drawn) [Compound 0947] reads under 1 nM; that for `C/C=C/C(=O)N[C@@H](c1cccs1)[C@@H](O)C(=O)O[C@H]1C[C@@]2(O)[C@@H](OC(=O)c3ccccc3)C3[C@](C)(C(=O)[C@H](OC(=O)C4CC4)C(=C1C)C2(C)C)[C@@H](O)C[C@H]1OC[C@@]31OC(C)=O` (stereo partly drawn) [Compound 3513], under 1 nM.
